The target of the test is T1, Human CaV2.2 channels (Homo sapiens, UniProt Q00975).
T1 construct: expressed in transfected cells; host or cells: HEK293
Nature of the test: Fluorescent (FLIPR) assay for CaV2.2 channels using potassium depolarization to induce channel opening. The note with it: 3 μM compound; 30 mM KCl assay buffer (inactivated channel state); HEK293 cells stably expressing human CaV2.2; read-out: Activity Category: %-Inhib (CaV2.2) @3 μM @30 mM KCl. The format is cell-based. The text has this:
In the process, the Ca^2+ influx is quantified in the FLIPR assay with the aid of a Ca^2+-sensitive dye (type Fluo-4, Molecular Probes Europe BV, Leiden, the Netherlands) in a fluorescent imaging plate reader (FLIPR 3, Molecular Devices, Sunnyvale, USA), as described hereinafter.
Human CaV2.2 channels were stably expressed in HEK293 cells together with alpha2-delta and beta subunits of voltage gated calcium channels. In addition, an inwardly rectifying potassium channel (Kir2.3) was stably expressed in these cells to augment control of the cell membrane potential by the concentration of extracellular potassium ions. Raise of the extracellular potassium concentration leads to depolarization of the membrane potential and thus regulates the voltage dependent state of CaV2.2 channels. For preparation, cells were seeded in black poly-D-lysine coated 96-well plates (Becton Dickinson, Biocoat 4640) in 100 μL medium [500 mL DMEM/F-12 plus Glutamax (Invitrogen 31331-093) plus 5.5 mL MEM NEAA 100× (Invitrogen 11140-035) plus 50 mL FBS decomplemented (Invitrogen 10270-106) plus 200 μg/mL Geneticin (Invitrogen 10131-027) plus 50 μg/mL Hygromycin B (Invitrogen 10687-010) plus 2 μg/mL Blasticidin (anti-bl5b Invivo-Gen) plus 0.2 μg/mL Puromycin (A 11138-03)] at a cell density of 30.000 cells per well. Plates were incubated at 37° C. (5% CO2) for 20 to 23 h. On the day of experiment medium was discarded and cells were loaded with Fluo 4 by addition of 100 μL of basic assay buffer (10 mM HEPES, 1 mM KCl, 149 mM NaCl, 0.8 mM CaCl2, 1.7 mM MgCl2, 10 mM Glucose, 0.1% BSA. pH 7.4) containing 2 μM Fluo 4 (Molecular Probes; F-14201), 0.01% pluronic acid (Molecular Probes; P-6866) and 2.5 mM probenecid (Molecular Probes; P36400). Cells were incubated in the dark at 25° C. for 60 min. Then dye containing buffer was discarded and 100 μL basic (1 mM KCl) or alternative (30 mM KCl) assay buffer was added. The alternative assay buffer contained altered concentrations of KCl (30 mM) and NaCl (120 mM) and was used in order to promote the inactivated channel state. After that 25 μL of basic or alternative assay buffer with or without test compound were added and cells were incubated again in the dark at 25° C. for 15 min. Fluorescence intensity was measured on a FLIPR 3 instrument (Molecular Devices Corp., Sunnyvale, Calif.) with excitation at 480 nm and emission at 535 nm. After continuously reading fluorescence for 30 sec, 50 μL of basic assay buffer containing 210 mM KCl (NaCl omitted) were added for depolarization. Peak fluorescent signal intensity was determined and the amplitude of the peak signal, normalized to base line, was used to measure channel inhibition by test compounds.

T1 sequence (Q00975 whole entry): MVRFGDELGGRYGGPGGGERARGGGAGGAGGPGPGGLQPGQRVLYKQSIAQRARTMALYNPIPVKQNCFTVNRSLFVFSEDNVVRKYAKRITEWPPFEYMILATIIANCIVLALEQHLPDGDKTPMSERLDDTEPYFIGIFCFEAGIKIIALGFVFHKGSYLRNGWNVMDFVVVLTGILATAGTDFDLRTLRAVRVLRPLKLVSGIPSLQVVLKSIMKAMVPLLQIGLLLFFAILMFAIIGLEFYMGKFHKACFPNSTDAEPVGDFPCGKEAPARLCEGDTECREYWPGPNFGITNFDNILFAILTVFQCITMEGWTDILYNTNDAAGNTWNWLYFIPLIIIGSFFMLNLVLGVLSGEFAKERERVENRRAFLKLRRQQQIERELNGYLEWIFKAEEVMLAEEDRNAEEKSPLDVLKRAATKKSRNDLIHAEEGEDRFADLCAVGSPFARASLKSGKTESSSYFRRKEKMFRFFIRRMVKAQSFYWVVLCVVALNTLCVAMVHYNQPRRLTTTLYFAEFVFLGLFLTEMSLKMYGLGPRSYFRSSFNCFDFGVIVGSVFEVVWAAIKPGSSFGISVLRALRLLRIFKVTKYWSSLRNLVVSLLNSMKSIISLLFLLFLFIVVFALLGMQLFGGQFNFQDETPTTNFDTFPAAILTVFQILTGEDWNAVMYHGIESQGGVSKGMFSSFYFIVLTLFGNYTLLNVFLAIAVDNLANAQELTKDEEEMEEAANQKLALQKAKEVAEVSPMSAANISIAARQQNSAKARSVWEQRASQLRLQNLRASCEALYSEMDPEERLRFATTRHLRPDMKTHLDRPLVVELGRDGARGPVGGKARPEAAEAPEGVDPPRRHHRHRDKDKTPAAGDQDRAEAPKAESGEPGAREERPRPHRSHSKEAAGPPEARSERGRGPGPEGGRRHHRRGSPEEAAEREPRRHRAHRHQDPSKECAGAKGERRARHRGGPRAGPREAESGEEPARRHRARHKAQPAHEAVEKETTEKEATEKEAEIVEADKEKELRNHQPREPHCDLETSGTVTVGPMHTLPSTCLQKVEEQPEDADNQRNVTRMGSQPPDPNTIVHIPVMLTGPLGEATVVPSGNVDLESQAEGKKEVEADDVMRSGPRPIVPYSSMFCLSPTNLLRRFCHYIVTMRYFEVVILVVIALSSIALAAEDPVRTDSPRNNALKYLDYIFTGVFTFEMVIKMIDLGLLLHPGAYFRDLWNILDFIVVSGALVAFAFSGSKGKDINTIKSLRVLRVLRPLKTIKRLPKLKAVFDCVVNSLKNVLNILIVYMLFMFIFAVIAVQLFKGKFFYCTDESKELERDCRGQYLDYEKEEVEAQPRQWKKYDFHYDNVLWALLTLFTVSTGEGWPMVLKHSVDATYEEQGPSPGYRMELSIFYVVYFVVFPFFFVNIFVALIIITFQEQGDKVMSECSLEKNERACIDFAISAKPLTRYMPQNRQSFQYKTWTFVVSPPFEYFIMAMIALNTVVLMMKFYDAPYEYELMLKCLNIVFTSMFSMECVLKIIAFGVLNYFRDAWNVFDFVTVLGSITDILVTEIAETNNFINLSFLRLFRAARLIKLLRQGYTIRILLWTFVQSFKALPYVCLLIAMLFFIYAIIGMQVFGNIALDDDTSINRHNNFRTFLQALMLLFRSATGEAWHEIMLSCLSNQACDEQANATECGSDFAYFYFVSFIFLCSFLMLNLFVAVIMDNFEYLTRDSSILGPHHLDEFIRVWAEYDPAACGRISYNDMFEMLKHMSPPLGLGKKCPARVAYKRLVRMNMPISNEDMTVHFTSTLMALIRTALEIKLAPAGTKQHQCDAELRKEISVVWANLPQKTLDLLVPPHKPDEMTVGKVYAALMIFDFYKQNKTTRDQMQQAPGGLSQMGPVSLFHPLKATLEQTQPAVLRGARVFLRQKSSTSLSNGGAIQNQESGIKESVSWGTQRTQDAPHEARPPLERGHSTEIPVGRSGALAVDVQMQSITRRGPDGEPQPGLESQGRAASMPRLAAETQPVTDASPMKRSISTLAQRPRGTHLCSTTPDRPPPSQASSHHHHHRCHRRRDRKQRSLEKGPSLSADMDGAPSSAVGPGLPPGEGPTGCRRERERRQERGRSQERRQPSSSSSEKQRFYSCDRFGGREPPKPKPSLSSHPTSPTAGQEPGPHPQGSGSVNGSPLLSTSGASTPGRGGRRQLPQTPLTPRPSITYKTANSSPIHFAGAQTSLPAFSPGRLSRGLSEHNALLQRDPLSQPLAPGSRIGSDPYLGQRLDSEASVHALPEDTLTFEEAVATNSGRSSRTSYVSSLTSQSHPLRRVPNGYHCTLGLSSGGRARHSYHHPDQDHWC
T1 sequence (P54284 whole entry, further chain): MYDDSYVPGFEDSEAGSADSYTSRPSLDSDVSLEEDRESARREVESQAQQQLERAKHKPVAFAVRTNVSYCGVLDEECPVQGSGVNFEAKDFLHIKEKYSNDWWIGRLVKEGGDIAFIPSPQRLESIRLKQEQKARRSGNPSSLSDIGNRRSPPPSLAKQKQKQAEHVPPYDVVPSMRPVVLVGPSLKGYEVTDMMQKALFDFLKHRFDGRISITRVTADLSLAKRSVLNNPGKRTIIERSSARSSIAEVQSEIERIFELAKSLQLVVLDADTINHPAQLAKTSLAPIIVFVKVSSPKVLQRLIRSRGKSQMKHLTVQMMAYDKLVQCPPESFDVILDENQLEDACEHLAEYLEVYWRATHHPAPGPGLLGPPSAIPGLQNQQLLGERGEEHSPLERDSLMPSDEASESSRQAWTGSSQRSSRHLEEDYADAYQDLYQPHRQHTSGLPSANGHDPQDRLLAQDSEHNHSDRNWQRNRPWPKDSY
T1 sequence (P54289 25-1103, further chain): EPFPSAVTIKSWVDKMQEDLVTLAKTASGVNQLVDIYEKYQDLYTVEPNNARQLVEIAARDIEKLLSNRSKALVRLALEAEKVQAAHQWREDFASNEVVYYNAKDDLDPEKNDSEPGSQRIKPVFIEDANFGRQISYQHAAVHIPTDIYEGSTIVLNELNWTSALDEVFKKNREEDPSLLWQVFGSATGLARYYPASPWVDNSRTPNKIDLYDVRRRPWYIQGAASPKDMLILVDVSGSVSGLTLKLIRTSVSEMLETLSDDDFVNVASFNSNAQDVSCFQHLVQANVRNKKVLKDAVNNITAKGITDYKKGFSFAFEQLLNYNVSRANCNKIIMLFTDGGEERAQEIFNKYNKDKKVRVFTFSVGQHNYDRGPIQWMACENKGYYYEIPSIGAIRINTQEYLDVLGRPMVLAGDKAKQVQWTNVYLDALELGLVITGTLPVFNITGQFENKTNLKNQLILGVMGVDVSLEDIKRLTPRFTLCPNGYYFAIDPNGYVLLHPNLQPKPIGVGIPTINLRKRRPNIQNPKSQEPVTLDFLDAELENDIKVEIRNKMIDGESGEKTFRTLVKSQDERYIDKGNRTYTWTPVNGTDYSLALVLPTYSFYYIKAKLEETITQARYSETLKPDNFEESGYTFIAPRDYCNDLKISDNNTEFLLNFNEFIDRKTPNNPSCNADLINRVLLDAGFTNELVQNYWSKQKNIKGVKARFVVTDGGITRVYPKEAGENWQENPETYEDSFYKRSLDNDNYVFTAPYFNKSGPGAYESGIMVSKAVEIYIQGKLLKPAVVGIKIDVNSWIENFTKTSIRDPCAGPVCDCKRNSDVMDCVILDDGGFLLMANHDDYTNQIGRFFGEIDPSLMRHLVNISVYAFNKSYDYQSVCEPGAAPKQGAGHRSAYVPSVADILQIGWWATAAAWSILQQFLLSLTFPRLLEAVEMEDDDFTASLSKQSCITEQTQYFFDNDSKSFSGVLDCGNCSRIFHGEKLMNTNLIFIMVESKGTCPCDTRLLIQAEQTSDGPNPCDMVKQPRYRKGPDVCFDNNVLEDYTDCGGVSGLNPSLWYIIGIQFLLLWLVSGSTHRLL

For `Cc1c(-c2ccc(Cl)cc2)c(C(=O)N(C)CC(C)(C)CN2CCOCC2)n(C2CC2)c1C(F)(F)F` [Example 016, 3-(4-Chlorophenyl)-1-cyclopropyl-N-(2,2-dimethyl-3-morpholin-4-yl-propyl)-N,4-dimethyl-5-(trifluoromethyl)-1H-pyrrole-2-carboxylic acid amide], the inhibition at 3 µM is above 95%.
To `CC(C)Cn1c(C(F)(F)F)cc(-c2ccc(F)cc2)c1C(=O)N(C)CCS(C)(=O)=O` [Example 050, 3-(4-Fluorophenyl)-N-methyl-1-(2-methyl-propyl)-N-(2-methylsulfonyl-ethyl)-5-(trifluoromethyl)-1H-pyrrole-2-carboxylic acid amide] belongs 75 to 95%; to `Cc1c(-c2ccc(Cl)cc2)c(C(=O)N(C)CC(C)(C)CO)n(C2CC2)c1C(F)(F)F` [Example 040, 3-(4-Chlorophenyl)-1-cyclopropyl-N-(3-hydroxy-2,2-dimethyl-propyl)-N,4-dimethyl-5-(trifluoromethyl)-1H-pyrrole-2-carboxylic acid amide], 75 to 95%.
On to `Cc1c(-c2ccc(Cl)cc2)c(C(=O)N2CCOCC2)n(CC2(N)CC2)c1C(F)(F)F` [Example 095, [1-[(1-Amino-cyclopropyl)-methyl]-3-(4-chlorophenyl)-4-methyl-5-(trifluoromethyl)-1H-pyrrol-2-yl]-morpholin-4-yl-methanone], for which the inhibition at 3 µM fell in the range of 75 to 95%.
Under `Cc1c(-c2ccc(Cl)cn2)c(C(=O)N(C)CC(C)(C)C#N)n(C(C)C)c1C(F)(F)F` [Example 117, 3-(5-Chloro-pyridin-2-yl)-N-(2-cyano-2-methyl-propyl)-1-isopropyl-N,4-dimethyl-5-(trifluoromethyl)-1H-pyrrole-2-carboxylic acid amide] stands 75 to 95%.
To `O=C(c1c(-c2ccc(Cl)cc2)cc(C(F)(F)F)n1C1CC1)N1CCOCC1` [Example 038, [3-(4-Chlorophenyl)-1-cyclopropyl-5-(trifluoromethyl)-1H-pyrrol-2-yl]-morpholin-4-yl-methanone] belongs 40 to 75%; to `Cc1cc(CN(C)C(=O)c2c(-c3ncc(Cl)cn3)c(C)c(C(F)(F)F)n2C(C)C)no1` [Example 123, 3-(5-Chloro-pyrimidin-2-yl)-1-isopropyl-N,4-dimethyl-N-[(5-methyl-isoxazol-3-yl)-methyl]-5-(trifluoromethyl)-1H-pyrrole-2-carboxylic acid amide], 75 to 95%; to `Cc1c(-c2ccc(Cl)cc2)c(C(=O)N(C)C(C)C)n(C(C)C)c1C(F)(F)F` [Example 108, 3-(4-Chlorophenyl)-N,1-diisopropyl-N,4-dimethyl-5-(trifluoromethyl)-1H-pyrrole-2-carboxylic acid amide], above 95%.
As for `CCn1c(C(=O)N2CCOC(C)(C)C2)c(-c2ccc(Cl)cc2)c(C)c1C(F)(F)F` [Example 103, [3-(4-Chlorophenyl)-1-ethyl-4-methyl-5-(trifluoromethyl)-1H-pyrrol-2-yl]-(2,2-dimethyl-morpholin-4-yl)-methanone], the inhibition at 3 µM is 75 to 95%.
As for `Cc1cc(CN(C)C(=O)c2c(-c3ccc(Cl)cc3F)c(C)c(C(F)(F)F)n2C2CC2)no1` [Example 020, 3-(4-Chloro-2-fluoro-phenyl)-1-cyclopropyl-N,4-dimethyl-N-[(5-methyl-isoxazol-3-yl)-methyl]-5-(trifluoromethyl)-1H-pyrrole-2-carboxylic acid amide], the inhibition at 3 µM is above 95%.
For the molecule `CC(C)Cn1c(C(F)(F)F)cc(-c2ccc(F)cc2)c1C(=O)N(C)CC(C)(C)C` [Example 053, N-(2,2-Dimethyl-propyl)-3-(4-fluorophenyl)-N-methyl-1-(2-methyl-propyl)-5-(trifluoromethyl)-1H-pyrrole-2-carboxylic acid amide], the inhibition at 3 µM was in the range of 40 to 75%.
To `Cc1c(-c2ccc(Cl)cc2)c(C(=O)N2CCOCC2)n(CC2(O)CC2)c1C(F)(F)F` [Example 089, [3-(4-Chlorophenyl)-1-[(1-hydroxy-cyclopropyl)-methyl]-4-methyl-5-(trifluoromethyl)-1H-pyrrol-2-yl]-morpholin-4-yl-methanone] belongs above 95%; to `Cc1c(-c2ccc(Cl)cn2)c(C(=O)N(C)CCS(C)(=O)=O)n(C(C)C)c1C(F)(F)F` [Example 118, 3-(5-Chloro-pyridin-2-yl)-1-isopropyl-N,4-dimethyl-N-(2-methylsulfonyl-ethyl)-5-(trifluoromethyl)-1H-pyrrole-2-carboxylic acid amide], 40 to 75%; to `Cc1cc(CN(C)C(=O)c2c(-c3ccc(Cl)cn3)c(C)c(C(F)(F)F)n2C(C)C)no1` [Example 113, 3-(5-Chloro-pyridin-2-yl)-1-isopropyl-N,4-dimethyl-N-[(5-methyl-isoxazol-3-yl)-methyl]-5-(trifluoromethyl)-1H-pyrrole-2-carboxylic acid amide], 75 to 95%.
As to `Cc1c(-c2ccc(Cl)cc2)c(C(=O)N(C)C2CCNCC2(C)C)n(C(C)C)c1C(F)(F)F` (stereo not drawn) [Example 135, 3-(4-Chlorophenyl)-N-(3,3-dimethyl-piperidin-4-yl)-1-isopropyl-N,4-dimethyl-5-(trifluoromethyl)-1H-pyrrole-2-carboxylic acid amide], the inhibition at 3 µM is 40 to 75%.
On to `CN(CC(C)(C)O)C(=O)c1c(-c2ccc(Cl)cc2)cc(C(F)(F)F)n1C1CC1` [Example 019, 3-(4-Chlorophenyl)-1-cyclopropyl-N-(2-hydroxy-2-methyl-propyl)-N-methyl-5-(trifluoromethyl)-1H-pyrrole-2-carboxylic acid amide], for which the inhibition at 3 µM lay within 40 to 75%.
Regarding `Cc1c(-c2ccc(Cl)cc2)c(C(=O)N(C)C(C)C(=O)NC(C)(C)C)n(C(C)C)c1C(F)(F)F` (stereo not drawn) [Example 133, N-[1-(tert-Butyl-carbamoyl)-ethyl]-3-(4-chlorophenyl)-1-isopropyl-N,4-dimethyl-5-(trifluoromethyl)-1H-pyrrole-2-carboxylic acid amide], the inhibition at 3 µM fell in the range of 40 to 75%.
For `CN(C(=O)c1c(-c2ccc(F)cc2)cc(C(F)(F)F)n1CC1CCCO1)C1CCS(=O)(=O)C1` (stereo not drawn) [Example 071, N-(1,1-Dioxo-thiolan-3-yl)-3-(4-fluorophenyl)-N-methyl-1-(tetrahydro-furan-2-yl-methyl)-5-(trifluoromethyl)-1H-pyrrole-2-carboxylic acid amide], the inhibition at 3 µM lay within 40 to 75%.
Turning to `O=C(c1c(-c2ccc(F)cc2)cc(C(F)(F)F)n1CC1CCCO1)N1CCOCC1` (stereo not drawn) [Example 081, [3-(4-Fluorophenyl)-1-(tetrahydro-furan-2-yl-methyl)-5-(trifluoromethyl)-1H-pyrrol-2-yl]-morpholin-4-yl-methanone], the inhibition at 3 µM lay in the range of 40 to 75%.
To `Cc1c(-c2ccc(Cl)cc2)c(C(=O)N(C)CC(C)(C)CO)n(CC(C)C)c1C(F)(F)F` [Example 055, 3-(4-Chlorophenyl)-N-(3-hydroxy-2,2-dimethyl-propyl)-N,4-dimethyl-1-(2-methyl-propyl)-5-(trifluoromethyl)-1H-pyrrole-2-carboxylic acid amide] belongs above 95%; to `Cc1c(-c2ccc(Cl)cc2)c(C(=O)N2CCOCC2)n(CC#CC2CC2)c1C(F)(F)F` [Example 086, [3-(4-Chlorophenyl)-1-(3-cyclopropyl-prop-2-ynyl)-4-methyl-5-(trifluoromethyl)-1H-pyrrol-2-yl]-morpholin-4-yl-methanone], above 95%.
